Measurements from patent US20250214951A1, “3-PHENYLISOXAZOLE DERIVATIVE, AND PHARMACEUTICAL COMPOSITION FOR PREVENTING OR TREATING EYE DISEASE, CONTAINING SAME AS ACTIVE INGREDIENT” (VASTHERA CO., LTD., priority 2022, published 2025).

Key:
[1] = tested on: A2E-BDP present in human retinal pigment epithelial cells (ARPE-19); test: Screening of ability to remove A2E-fluorescent labeling substance (A2E-BDP), lysate fluorescence; type: cell-based; details: ARPE-19, 24 h, ARPE-19 loaded with 10 μM A2E-BDP 24 h, test compound 50 μM once, fluorescence ex 485/em 535 nm, read-out: Capacity (%) to remove A2E-BDP at 50 μM
Protocol: The human retinal pigment epithelial cell line (ARPE-19) used in the experiment was provided by ATCC (American Type Culture Collection). The ARPE-19 cell line was cultured in DMEM medium containing 10% FBS. After culture, the cells were dispensed into 96-well plates at a concentration of 4×10^3 cells/well and cultured for 24 hours. The ARPE-19 cell line was treated with A2E-fluorescent labeling substance (A2E-BDP) at a concentration of 10 μM for 24 hours to induce the accumulation of A2E-BDP in the ARPE-19 cell line.
In order to evaluate the intracellular A2E removal ability of the compound of the present invention, an easily detectable A2E-fluorescent labeling substance (A2E-BDP) was used. The ARPE-19 cells prepared by the above method were treated with each test compound at a concentration of 50 μM once, and then cultured for 24 hours. The cells were lysed by adding a cell lysis buffer containing a protease inhibitor (50 mM Tris-chloride, pH 8.0, 150 mM sodium chloride, 1% NP-40, 1% sodium deoxycholate, 1% sodium dodecyl sulfate, and 2 mM ethylenediamine tetraacetic acid) to each 96-well. The prepared cell lysate was transferred to a white 96-well plate, and the fluorescence intensity was measured using a fluorescence microplate reader (VICTOR™ X3, Perkin Elmer, USA) (excitation 485 nm, emission 535 nm).

ARPE-19 cells = test: Inhibition of retinal pigment epithelial cell death induced by A2E and blue light; type: cell-based, human
Protocol: A2E accumulated in human retinal pigment epithelial cells is known to induce cytotoxicity by blue light irradiation. Using a human retinal pigment epithelial cell line, the effect of the compound of the present invention on inhibiting cell death by blue light irradiation was measured.
The ARPE-19 cell line was dispensed into a 6-well plate at a concentration of 2×10^4 cells/well and cultured for 24 hours. In order to induce A2E accumulation in the ARPE-19 cell line, cells were treated with A2E three times at a concentration of 25 μM at 48-hour intervals. Twenty-four hours after the last A2E treatment, cells were treated with example 17 compound of the present invention twice at 24-hour intervals at concentrations of 10, 25, and 50 μM, respectively. After an additional 24 hours of culture, blue light (BL, 430 nm, 7500 lux) was irradiated for 30 minutes and cultured for 24 hours. Cell death was observed under a microscope, and the number of living cells was measured using Image J (National Institutes of Health, USA) to calculate the quantitative cell viability.

LC3-II = test: Autophagy activation in A2E-accumulated ARPE-19 (LC3-II Western); type: cell-based, human; details: 25, 50, 100 μM, 12 h; FIG. 8
Protocol: A2E is known to inhibit intracellular autophagy. Therefore, it was measured whether example 17 compound of the present invention also increases autophagy in ARPE-19 cell lines accumulating A2E.
Specifically, ARPE-19 cell lines were dispensed into 6-well plates at a concentration of 1×10^5 cells/well and cultured for 24 hours. The cells were treated with A2E at a concentration of […] for 24 hours. Thereafter, the cells were treated with example 17 compound of the present invention at concentrations of 25, 50, and 100 μM for 12 hours each. Thereafter, cell lysate preparation and measurement of LC3-II by Western immunoblotting were performed in the same manner as in Experimental Example 7, and the results are shown in FIG. 8.

[2] = tested on: A2E accumulated in ARPE-19 cells; test: Removal of intracellular A2E measured by HPLC/LC-MS; type: cell-based, human; details: ARPE-19 loaded with 50 μM A2E 48 h; 10, 25, 50 μM, 24 h; FIG. 2
From the text: In Table 1 and FIG. 1, in order to measure the reduction of intracellular A2E by compounds, A2E-fluorescent substance (A2E-BDP) that is easy to observe fluorescence was used. In previous research reports, A2E-BDP is known to have the same intracellular dynamics and characteristics as A2E, but since A2E is a substance that actually exists in a living body, the quantitative change in intracellular A2E was directly measured using the HPLC method as follows.
ARPE-19 cell lines were dispensed into 6-well plates at a concentration of 4×10^3 cells/well and cultured for 24 hours. ARPE-19 cell lines were treated with A2E at a concentration of 50 μM for 48 hours to accumulate A2E intracellularly. To evaluate the A2E removal ability, ARPE-19 cells containing A2E were treated with compound 17 of the present invention (10, 25, 50 μM) for 24 hours. Thereafter, ARPE-19 cells were washed with phosphate-buffered saline (PBS), and cell lysis buffer containing a protease inhibitor was added to prepare a cell lysate. Chloroform and methanol (2:1, vol/vol) were added to the sample obtained above, shaken to extract A2E, and then centrifuged at 10,000 g for 10 minutes. […] LC-MS (Shimadzu LC-MS 2010EV) analysis was performed using a C18 column ([…]) with acetonitrile and 0.1% formic acid (gradient, 0-100%, 0-10 min; flow rate 1.0 ml/min; monitored at 503 nm). […]

In the case of C=CCOCc1cc(-c2cc(CC=C)ccc2OC)no1 [Example 17, 3-(5-allyl-2-methoxyphenyl)-5-((allyloxy)methyl)isoxazole], the inhibition at 50 µM [1] is reported as ≥ 60%, the “cell death induced by A2E and blue light (microscope)” value (ARPE-19 cells; A2E 25 μM x3, compound 10, 25, 50 μM twice, blue light 430 nm, 7500 lux, 30 min, FIG. 3 upper) is reported as “cell death was significantly inhibited” and the “cell viability quantified using Image J (cell death by A2E and blue light)” value (ARPE-19 cells; same model, FIG. 3 lower) is reported as “statistically significantly inhibited”. The “LC3-II level in A2E-accumulated ARPE-19” value (LC3-II) was “an increase in LC3-II” and the “amount of accumulated A2E (HPLC)” value [2] was “significantly reduced in a concentration-dependent manner”.
